Results: US20160152995A1, “METHODS AND COMPOSITIONS TO IMPROVE THE SPREAD OF CHEMICAL SIGNALS IN PLANTS” (PIONEER HI-BRED INTERNATIONAL, INC., priority 2013, published 2016)

Experiments:
DS-red signal = DS-red signal in soybean T1 plants from seed imbibed with chlorsulfuron; assay type: in vivo; conditions: T1 seed imbibed with 1 ppm, two weeks
Source text: (§1) The first, a control construct, pPHP46916 (10,904 bp) (SEQ ID NO: 2111) contains the following cassettes: cassette A comprising a Glycine max s-adenosylmethionine promoter operably linked to the Glycine max acetolactate synthase gene with HrA mutations operably linked to a Glycine max acetolactate synthase terminator (this cassette serves as a selectable marker during plant transformation; position 81-4062); followed by cassette B comprising the T7 promoter operably linked to hygromycin phosphotransferase operably linked to a T7 terminator (which serves as a selectable marker in E. coli, positions 5448-6586); followed by cassette C comprising a cauliflower mosaic virus 35S promoter with three copies of the TET operator embedded operably linked to DS-RED Express that has the potato LS1 intron; operably linked to the cauliflower mosaic virus 35S terminator (position 6862-8455), followed by cassette D comprising the Glycine max elongation factor 1a2 promoter operably linked to the repressor protein ESR (L10-B7) operably linked to the nos terminator (position 8474-10893). The second, experimental construct, pPHP46864 (11,868 bp) (SEQ ID NO:2112) is exactly the same except embedded within the potato LS1 intron at the Mfe1 site is a 964 bp cassette containing the Glycine max microRNA precursor 159 containing a microRNA that targets the repressor protein. […]

DsRED gene expression = assay: DsRED induction in transgenic tobacco leaf disks and T1 seedlings with Ethametsulfuron; assay type: in vivo, Nicotiana tabacum; conditions: T1 seeds germinated on 1 ppm Ethametsulfuron, monitored thru four leaf stage
Source text: A summary of the constructs shown in FIG. 4 is provided below in table 29. All vectors contain a right border (RB) proximal 35S::3xtetO-DsRED-UBQ3 inducible reporter cassette, a 35S::1xtetO-EsR(L13-32)-UBQ14 repressor cassette, and a SAMS-HRA-ALS left border (LB) proximal selectable marker. Inserted either upstream (pHD1194-1196) or downstream ([…]) of the repressor cassette are MMV::3xOp-siRNA^rep-Pin2 cassettes composed of an inverted repeat of the full length repressor coding region (no ATG-pHD1194 and 1197) or limited to the 5′ (pHD1195 & 1198) or 3′ (pHD1196 & 1199) halves of the SU repressor coding region linked by an intron spacer region. The MMV::tetO promoter was chosen so as not to cause silencing of the 35S::tetO promoter controlling target transgene expression. In this particular example the spacer region is the potato ST-LS1 gene intron IV2 (Construction of an intron-containing marker gene: splicing of the intron in transgenic plants and its use in monitoring early events in Agrobacterium-mediated plant transformation. Vancanneyt et al. (1990) Mol Gen Genet. 220(2):245-50). […] Nine fully derepressed DsRED positive seedings for each event were then transplanted into soil and their fluorescence phenotype monitored thru the four leaf developmental stage. […]

DS-RED expression = assay: DS-RED induction in soybean T0 leaf discs floated on ethametsulfuron; assay type: in vivo; conditions: soybean T0 leaf discs of experimental plants (pPHP46864, amiRNA) vs control pPHP46916; 0.05 ppm or 0.5 ppm, 3-4 days
Source text: as §1

Question: With `COc1nc(C)nc(NC(=O)NS(=O)(=O)c2ccccc2Cl)n1` [chlorsulfuron] as the molecule, how does the DS-red signal (DS-red signal; control soybean plants (pPHP46916)) read?
Answer: Its DS-red signal is “no DS-red signal found in root, stem or cotyledon”.

Question: And the DS-red signal (DS-red signal; experimental soybean plants (pPHP46864, amiRNA))?
Answer: The DS-red signal was “weak DS-red signal”.

Question: With `CCOc1nc(NC)nc(NC(=O)NS(=O)(=O)c2ccccc2C(=O)OC)n1` [Ethametsulfuron, Ethametsulfuron-methyl] as the molecule, how does the DsRED expression signal (DsRED gene expression; pHD1180 control tobacco events (no siRNA cassette)) read?
Answer: The DsRED expression signal was “modest and diminishes”.

Question: What about the DsRED intensity level (DsRED gene expression; tobacco lines containing the MMV::tetO-siRNArep cassette (pHD1194-1199)) of the same molecule?
Answer: Its DsRED intensity level is “high and remains so with time”.

Question: What about the “pattern of DS-RED expression in inducible leaf discs” value (DS-RED expression) of the same molecule?
Answer: The value was “smoother, more even pattern of expression”.
